Experimental data published in patent US10597391B2, “Urea-containing isoxazole derivatives as FXR agonists and methods of use thereof” (Enanta Pharmaceuticals, Inc., priority 2016, dated 2020).
“And” between values parts separate entries of the source, which are not always exact repeats. Equal entries are not always repeated. Where two headings read alike, the source gives them in different places.

Target: T1, human FXR (NR1H4) (Homo sapiens, UniProt Q96RI1)
T1 sequence (Q96RI1 1-486): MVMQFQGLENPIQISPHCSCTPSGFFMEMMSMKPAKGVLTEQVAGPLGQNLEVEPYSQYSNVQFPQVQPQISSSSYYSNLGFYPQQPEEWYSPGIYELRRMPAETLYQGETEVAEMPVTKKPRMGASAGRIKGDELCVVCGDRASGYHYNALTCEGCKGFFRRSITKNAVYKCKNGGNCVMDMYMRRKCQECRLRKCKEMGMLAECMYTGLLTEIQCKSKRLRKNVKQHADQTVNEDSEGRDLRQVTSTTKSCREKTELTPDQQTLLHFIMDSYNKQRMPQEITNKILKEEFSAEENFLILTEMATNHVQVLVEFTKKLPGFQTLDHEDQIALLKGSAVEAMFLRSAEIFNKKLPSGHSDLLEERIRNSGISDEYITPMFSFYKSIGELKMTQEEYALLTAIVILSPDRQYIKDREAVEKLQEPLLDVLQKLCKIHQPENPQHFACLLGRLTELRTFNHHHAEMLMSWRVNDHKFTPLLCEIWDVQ
Assay: Human FXR (NR1H4) Assay: Gal4 promoter driven luciferase reporter transactivation in CHO cells (Indigo Bioscience kit IB00601)
Type: cell-based
Details: for Emax: CHO, read-out: Efficacy (%); for EC50: potency range, Human FXR (NR1H4) reporter assay in CHO cells, read-out: EC50
Description: Human FXR (NR1H4) Assay Determination of a ligand mediated Gal4 promoter driven transactivation to quantify ligand binding mediated activation of FXR. FXR Reporter Assay kit purchased from Indigo Bioscience (Catalogue number: IB00601) to determine the potency and efficacy of compounds that can induce FXR activation. The principle application of this reporter assay system is to quantify functional activity of human FXR. The assay utilizes non-human mammalian cells, CHO (Chinese hamster ovary) cells engineered to express human NR1H4 protein (referred to as FXR). Reporter cells also incorporate the cDNA encoding beetle luciferase which catalyzes the substrates and yields photon emission. Luminescence intensity of the reaction is quantified using a plate-reading luminometer, Envision. Reporter Cells include the luciferase reporter gene functionally linked to an FXR responsive promoter. Thus, quantifying changes in luciferase expression in the treated reporter cells provides a sensitive surrogate measure of the changes in FXR activity. […] The assay is according to the manufacturer's instructions. […] Retrieve Reporter Cells from −80° C. storage. Perform a rapid thaw of the frozen cells by transferring a 10 ml volume of 37° C. cell recovery medium into the tube of frozen cells. […] Retrieve the tube of Reporter Cell Suspension from the water bath. […] Dispense 90 μl of cell suspension into each well of the 96-well Assay Plate. Transfer the plate into 37° C. incubator, allowing the cells adherent to the bottom of the well. Dilute compounds in Dilution Plate (DP), and administrate to cells at Assay Plate (AP). […] Cells were incubated for additional 22 hours before luciferase activities were measured. Thirty minutes before intending to quantify FXR activity, remove Detection Substrate and Detection Buffer from the refrigerator and place them in a low-light area so that they may equilibrate to room temperature. Remove the plate's lid and discard all media contents by ejecting it into an appropriate waste container. Gently tap the inverted plate onto a clean absorbent paper towel to remove residual droplets. Cells will remain tightly adhered to well bottoms. Add 100 μl of luciferase detection reagent to each well of the assay plate. Allow the assay plate to rest at room temperature for at least 5 minutes following the addition of LDR. Set the instrument (Envision) to perform a single 5 second “plate shake” prior to reading the first assay well. Read time may be 0.5 second (500 mSec) per well.

[1] = efficacy normalized to CDCA set as 100%

SMILES | Emax [1] [%] | EC50 | Emax [%]
O=C(Nc1cc(F)cc(F)c1)N1C2CCC1CC(OCc1c(-c3c(Cl)cccc3Cl)noc1C1CC1)C2 (stereo not drawn) [Example 700] | 292 | < 10 nM | 
O=C(Nc1cccc2ccccc12)N1C2CCC1CC(OCc1c(-c3c(Cl)cccc3Cl)noc1C1CC1)C2 (stereo not drawn) [Example 19] |  | 10 to 100 nM | 
O=C(O)c1ccc(NC(=O)N2C3CCC2CC(OCc2c(-c4c(Cl)cccc4Cl)noc2C2CC2)C3)cc1 (stereo not drawn) [Example 184] |  | < 10 nM | 
COc1ccc(C(=O)O)cc1NC(=O)N1C2CCC1CC(OCc1c(-c3ccccc3OC(F)(F)F)noc1C1CC1)C2 (stereo not drawn) [Example 750] | 76 | 100 to 1000 nM | 
O=C(O)c1ccc(NC(=O)N2C3CCC2CC(OCc2c(-c4c(F)cccc4F)noc2C2CC2)C3)c(F)c1 (stereo not drawn) [Example 808] | 32 | 10 to 100 nM | 
CC1(S(=O)(=O)NC(=O)c2ccc(NC(=O)N3C4CCC3CC(OCc3c(-c5c(Cl)cccc5Cl)noc3C3CC3)C4)cc2-c2cncnc2)CC1 (stereo not drawn) [Example 790] | 49 | 10 to 100 nM | 
O=C(O)c1ccc2c(c1)N(C(=O)N1C3CCC1CC(OCc1c(-c4ccccc4OC(F)(F)F)noc1C1CC1)C3)CC2 (stereo not drawn) [Example 590] |  | > 1000 nM | 67
O=C(O)c1ccc(F)c(NC(=O)N2C3CCC2CC(OCc2c(-c4c(Cl)cccc4Cl)noc2C2CC2)C3)c1 (stereo not drawn) [Example 723] | 140 | 100 to 1000 nM | 
CCOc1cc(C(=O)O)ccc1NC(=O)N1C2CCC1CC(OCc1c(-c3ccccc3C3CC3)noc1C1CC1)C2 (stereo not drawn) [Example 811] | 66 | 10 to 100 nM | 
O=C(O)c1cccnc1NC(=O)N1C2CCC1CC(OCc1c(-c3ccccc3OC(F)(F)F)noc1C1CC1)C2 (stereo not drawn) [Example 772] | 31 | > 1000 nM | 
CN(C)S(=O)(=O)NC(=O)c1ccc(NC(=O)N2C3CCC2CC(OCc2c(-c4c(Cl)cccc4Cl)noc2C2CC2)C3)cc1 (stereo not drawn) [Example 695] | 140 | 10 to 100 nM | 
CCOC(=O)c1ccc2c(c1)CCN2C(=O)N1C2CCC1CC(OCc1c(-c3ccccc3OC(F)(F)F)noc1C1CC1)C2 (stereo not drawn) [Example 591] |  | > 1000 nM | 166
O=C(NCc1ccc(F)c(F)c1)N1C2CCC1CC(OCc1c(-c3c(Cl)cccc3Cl)noc1C1CC1)C2 (stereo not drawn) [Example 733] | 175 | < 10 nM | 
COC(=O)c1ccc(NC(=O)N2C3CCC2CC(OCc2c(-c4c(Cl)cccc4Cl)noc2C2CC2)C3)c(OC)c1 (stereo not drawn) [Example 190] |  | 10 to 100 nM | 
CC(C)(C)c1ccc(S(=O)(=O)NC(=O)c2cccc(NC(=O)N3C4CCC3CC(OCc3c(-c5ccccc5OC(F)(F)F)noc3C3CC3)C4)c2)cc1 (stereo not drawn) [Example 263] |  | > 1000 nM | 
O=C(Nc1ccc(C(F)F)cc1)N1C2CCC1CC(OCc1c(-c3c(Cl)cccc3Cl)noc1C1CC1)C2 (stereo not drawn) [Example 189] |  | 10 to 100 nM | 
COc1c(NC(=O)N2C3CCC2CC(OCc2c(-c4ccccc4OC(F)(F)F)noc2C2CC2)C3)cccc1C(=O)O (stereo not drawn) [Example 761] | 105 | > 1000 nM | 
CCOC(=O)c1cccc(NC(=O)N2C3CCC2CC(NCc2c(-c4c(Cl)cccc4Cl)noc2C2CC2)C3)c1 (stereo not drawn) [Example 827] | 110 | < 10 nM | 
O=C(O)c1ccc(NC(=O)N2C3CCC2CC(OCc2c(-c4ccccc4C(F)(F)F)noc2C2CC2)C3)c(F)c1 (stereo not drawn) [Example 807] | 42 | 10 to 100 nM | 
N#Cc1cncc(NC(=O)N2C3CCC2CC(OCc2c(-c4c(Cl)cccc4Cl)noc2C2CC2)C3)c1 (stereo not drawn) [Example 703] | 170 | < 10 nM | 
CC1(S(=O)(=O)NC(=O)c2cnc3ccc(NC(=O)N4C5CCC4CC(OCc4c(-c6c(Cl)cccc6Cl)noc4C4CC4)C5)cc3c2)CC1 (stereo not drawn) [Example 791] | 11 | 100 to 1000 nM | 
O=C(O)c1cccc(NC(=O)N2C3CCC2CC(OCc2c(-c4c(Cl)cccc4Cl)noc2C2CC2)C3)c1 (stereo not drawn) [Example 183] |  | 100 to 1000 nM | 
O=C(O)c1ccc2nc(NC(=O)N3C4CCC3CC(OCc3c(-c5c(Cl)cccc5Cl)noc3C3CC3)C4)sc2c1 (stereo not drawn) [Example 805] | 104 | 10 to 100 nM | 

SMILES | Emax [1] [%] | EC50 | Emax [%]
COC(=O)c1cc(F)c(NC(=O)N2C3CCC2CC(OCc2c(-c4c(Cl)cccc4Cl)noc2C2CC2)C3)cc1-c1ccccc1 (stereo not drawn) [Example 794] | 80 | < 10 nM | 
COc1cc(C(=O)O)ccc1NC(=O)N1C2CCC1CC(OCc1c(-c3ccccc3OC(F)(F)F)noc1C1CC1)C2 (stereo not drawn) [Example 238] |  | < 10 nM | 
COC(=O)c1ccc(NC(=O)N2C3CCC2CC(OCc2c(-c4ccccc4OC(F)(F)F)noc2C2CC2)C3)c(F)c1 (stereo not drawn) [Example 237] |  | 100 to 1000 nM | 
O=C(O)c1ccc(NC(=O)N2C3CCC2CC(OCc2c(-c4ccccc4OC(F)(F)F)noc2C2CC2)C3)cc1-c1ccccc1 (stereo not drawn) [Example 247] |  | < 10 nM | 
O=C(O)c1ccc(NC(=O)N2C3CCC2CC(OCc2c(-c4ccccc4C(F)(F)F)noc2C2CC2)C3)c(C(F)(F)F)c1 (stereo not drawn) [Example 817] | 20 | 10 to 100 nM | 
O=C(NS(=O)(=O)C1CC1)c1ccc(NC(=O)N2C3CCC2CC(OCc2c(-c4ccccc4OC(F)(F)F)noc2C2CC2)C3)cc1 (stereo not drawn) [Example 755] | 220 | 100 to 1000 nM | 
O=C(O)c1ccc(NC(=O)N2C3CCC2CC(OCc2c(-c4c(F)cccc4F)noc2C2CC2)C3)cc1-c1ccccc1 (stereo not drawn) [Example 816] | 36 | 10 to 100 nM | 
CN1CC=C(c2cccc(NC(=O)N3C4CCC3CC(OCc3c(-c5c(Cl)cccc5Cl)noc3C3CC3)C4)c2)CC1 (stereo not drawn) [Example 715] | 123 | 10 to 100 nM | 
COC(=O)c1ccc(NC(=O)N2C3CCC2CC(OCc2c(-c4c(Cl)cccc4Cl)noc2C2CC2)C3)cc1-c1ccc(C(F)(F)F)nc1 (stereo not drawn) [Example 796] | 95 | < 10 nM | 
O=C(Nc1cccc(-c2ccccn2)c1)N1C2CCC1CC(OCc1c(-c3c(Cl)cccc3Cl)noc1C1CC1)C2 (stereo not drawn) [Example 736] | 136 | < 10 nM | 
O=C(O)c1cc(NC(=O)N2C3CCC2CC(OCc2c(-c4c(Cl)cccc4Cl)noc2C2CC2)C3)cc(-c2cccnc2)c1 (stereo not drawn) [Example 727] |  | 10 to 100 nM and < 10 nM | 
O=C(Nc1cnc2ccccc2c1)N1C2CCC1CC(OCc1c(-c3c(Cl)cccc3Cl)noc1C1CC1)C2 (stereo not drawn) [Example 21] |  | 10 to 100 nM | 
CCOC(=O)c1ccc(NC(=O)N2C3CCC2CC(OCc2c(-c4c(Cl)cccc4Cl)noc2C2CC2)C3)cc1-c1cncnc1 (stereo not drawn) [Example 778] | 248 | < 10 nM | 
CCOc1cc(C(=O)OC)ccc1NC(=O)N1C2CCC1CC(OCc1c(-c3c(Cl)cccc3Cl)noc1C1CC1)C2 (stereo not drawn) [Example 718] | 119 | 10 to 100 nM | 
O=C(O)c1ccc(NC(=O)N2C3CCC2CC(OCc2c(-c4c(Cl)cccc4Cl)noc2C2CC2)C3)cc1-c1ccc(C(F)(F)F)nc1 (stereo not drawn) [Example 799] | 133 | < 10 nM | 
COC(=O)c1ccc(NC(=O)N2C3CCC2CC(OCc2c(-c4c(Cl)cccc4Cl)noc2C2CC2)C3)c(OC(F)(F)F)c1 (stereo not drawn) [Example 716] | 43 | 100 to 1000 nM | 
COc1ccc(-c2cc(NC(=O)N3C4CCC3CC(OCc3c(-c5c(Cl)cccc5Cl)noc3C3CC3)C4)ccc2C(=O)O)cn1 (stereo not drawn) [Example 787] | 97 | < 10 nM | 
COC(=O)c1ccc(NC(=O)N2C3CCC2CC(OCc2c(-c4c(Cl)cccc4Cl)noc2C2CC2)C3)cc1F (stereo not drawn) [Example 196] |  | < 10 nM | 
COc1cc(C(=O)O)ccc1NC(=O)N1C2CCC1CC(OCc1c(-c3c(Cl)cccc3Cl)noc1C1CC1)C2 (stereo not drawn) [Example 192] |  | < 10 nM | 
O=C(Nc1cncc(C(F)(F)F)c1)N1C2CCC1CC(OCc1c(-c3c(Cl)cccc3Cl)noc1C1CC1)C2 (stereo not drawn) [Example 18] |  | < 10 nM | 
O=C(Nc1cccc(-c2nnn[nH]2)c1)N1C2CC[C@H]1CC(OCc1c(-c3c(Cl)cccc3Cl)noc1C1CC1)C2 (stereo partly drawn) [Example 185] |  | 100 to 1000 nM | 
O=C(NCc1cccc(C(F)(F)F)c1)N1C2CCC1CC(OCc1c(-c3c(Cl)cccc3Cl)noc1C1CC1)C2 (stereo not drawn) [Example 734] | 172 | 10 to 100 nM | 
